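Growth conditions: 96-well plates. Treatment: test compound, 48 hours, 5 concentrations. Analysis: linear interpolation between bracketing concentrations; unreached endpoints set to highest concentration. GI50 = concentration required for 50% inhibition of growth. TGI marks complete inhibition of growth.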

Holding throughout (assay): NCI tumour cell line growth inhibition, 48 h
The subject of assay [1] is RXF 393 renal.
For assay [2], the system named is EKVX NSCLC.
Assay [3] relates to A549 NSCLC.
In assay [4] the test system is NCI-H23 lung.
Assay [5] relates to UACC-62 melanoma.
The test system of assay [6] is NCI-H522 lung.
Assay [7] concerns NCI-H460 lung.
Assay [8] concerns M14 melanoma.
Assay [9] deals with HS 578T breast.
Assay [10] has as its system SW-620 colon.

In the case of `O=C(Nc1ccc(Oc2cccc(Cl)c2)c(Cl)c1)c1cccnc1`, the GI50 in [1] was 0.927 µM; in assay [2], 3.62 µM; in [3], 2.08 µM; in assay [4] it was 3.3 µM; in assay [5] it was 3.89 µM; in [6], 0.968 µM. Further, the GI50 in assay [7] is 1.88 µM; in assay [8] it was 1.38 µM; in [9], 1.83 µM; in assay [10], 1.21 µM. Moreover, the TGI was 4.65 µM in [1]; greater than 50 µM in assay [2]; greater than 50 µM in [3]; greater than 50 µM in assay [4]; greater than 50 µM in [5]; 5.89 µM in [6]. For the same compound, the TGI is 19.1 µM in assay [7], 29 µM in assay [8], 35.5 µM in [9] and greater than 50 µM in assay [10].
Take `Fc1ccc(-c2ncn(C3CCNCC3)c2-c2ccnc(Oc3ccc(Oc4ccccc4)cc3)n2)cc1`: the GI50 in assay [1] is 2.78 µM; in [2] it was 3.87 µM; in assay [3], 4.09 µM; in assay [4], 4.08 µM; in [5] it was 4.29 µM; in assay [6], 4.67 µM. In addition, the GI50 is 3.66 µM in assay [7], 4.31 µM in [8], 1.73 µM in assay [9] and 3.55 µM in [10]. For the same compound, the TGI amounted to 6.1 µM in assay [1]; 7.74 µM in [2]; 7.84 µM in assay [3]; 7.9 µM in [4]; 7.78 µM in assay [5]; 8.7 µM in assay [6]. Also, the TGI in [7] was found to be 7.28 µM; in assay [8], 7.99 µM; in assay [9] it was 6.89 µM; in assay [10], 7.06 µM.
With `C/C(=C\COc1ccc2ccc(=O)oc2c1)CCC(=O)C(C)(C)O`, the TGI is 39.9 µM in assay [1]; greater than 100 µM in [2]; greater than 100 µM in assay [3]; greater than 100 µM in assay [4]; 37.1 µM in assay [5]; 43.6 µM in assay [6]. In addition, the TGI in assay [7] is greater than 100 µM; in [8], 61.2 µM; in [9], 78.2 µM; in assay [10], 38.9 µM.
Turning to `CCCCOc1nc2ccccc2cc1C1CNC(=O)c2ccccc2N1` (stereo not given), the GI50 in [1] is 2.25 µM; in assay [2] it was 5.15 µM; in assay [3], 4.25 µM; in assay [4] it was 5.19 µM; in assay [5], 1.95 µM; in [6] it was 2.75 µM. Besides, the GI50 is 3.16 µM in assay [7], 1.53 µM in assay [8], 2.63 µM in assay [9] and 2.59 µM in [10]. The TGI stood at 10.2 µM in assay [1]; 63 µM in assay [2]; 15.9 µM in assay [3]; 35.1 µM in [4]; 12.3 µM in [5]; 21.2 µM in assay [6]. For the same compound, the TGI in assay [7] is 11.5 µM; in assay [8] it was 9.03 µM; in [9], 19 µM; in [10], 21.5 µM.
For the compound `O=C1c2ccccc2-c2c1c1ccccc1c(=O)n2CCCNCCO`, the GI50 is 0.585 µM in assay [1]; 2.38 µM in [2]; 0.267 µM in assay [3]; 0.818 µM in [4]; 0.304 µM in [5]; 0.689 µM in [6]. Moreover, the GI50 in assay [7] is 0.111 µM; in assay [8] it was 1.21 µM; in [9] it was 0.589 µM; in assay [10] it was 0.145 µM. Further, the TGI in [1] was 4.03 µM; in assay [2], 8.35 µM; in [3], 12.8 µM; in assay [4], 4.97 µM; in [5], 1.74 µM; in assay [6], 4.33 µM. Also, the TGI in assay [7] is 1.56 µM; in assay [8], 3 µM; in assay [9] it was 5.04 µM; in assay [10], 5.26 µM.
Take `Cn1c(-c2cccs2)cc(-c2ccsc2)c1-c1ccsc1`: the TGI in [1], in [2], in assay [3], in assay [4], in assay [5] and in [6] was greater than 100 µM each time. Further, the TGI in assay [7], in [8], in [9] and in assay [10] was greater than 100 µM throughout.
As to `O=C(N/N=C\c1cc(Br)cc(Br)c1O)N/N=C/c1cc(Br)cc(Br)c1O`, the GI50 in assay [1] was 3.57 µM; in assay [2], 4.09 µM; in assay [3], 3.74 µM; in assay [4], 6.21 µM; in assay [5], 1.8 µM; in assay [6], 3.08 µM. Also, the GI50 is 3.11 µM in assay [7], 4.29 µM in assay [8], 19.8 µM in assay [9] and 4.52 µM in assay [10]. Besides, the TGI in assay [1] is 27.3 µM; in assay [2], 17.8 µM; in assay [3], 14.6 µM; in assay [4], 23.5 µM; in [5], 10.2 µM; in [6] it was 13.8 µM. Moreover, the TGI in assay [7] worked out at 11.5 µM; in assay [8], 19 µM; in assay [9] it was 51.2 µM; in assay [10], 19.6 µM.
As for `CCOC(=O)Nc1ccc2nc(Sc3ccc(Cl)cc3)sc2c1`, the GI50 in assay [1] is 2.99 µM; in [2] it was 8.28 µM; in [3], 6.3 µM; in [4] it was 10.2 µM; in assay [5] it was 1.6 µM; in assay [6], 2.47 µM. In addition, the GI50 in assay [7] is 1.01 µM; in assay [8], 1.66 µM; in [9], 7.25 µM; in [10], 0.488 µM. For the same compound, the TGI in [1] was 18.8 µM; in assay [2], greater than 82.6 µM; in [3], greater than 100 µM; in [4], greater than 100 µM; in [5], 48.3 µM; in [6], 35.2 µM. Further, the TGI was greater than 76.9 µM in assay [7], 24.6 µM in [8], 97.9 µM in [9] and greater than 100 µM in [10].

Values taken from PubChem BioAssay (NCI).
